Literature values, collected in paper PMC12465416 (BMC Infectious Diseases, 2025).
Structures can show the parent of a compound that is named as a salt. Where a SMILES comes first, the peptide text is derived from it. Bridges are numbered along the chain shown (N, C = ends). [ ]: non-standard residue; d: D form. The star is where a group is joined. X1 = CC[C@H](C)CCCCC(=O)*; Dab = NCC[C@H](N)C(=O)O

Conditions: IV PMB alone to treat CRGNB pneumonia

In the case of `CC[C@H](C)CCCCC(=O)N[C@@H](CCN)C(=O)N[C@H](C(=O)N[C@@H](CCN)C(=O)N[C@H]1CCNC(=O)[C@H]([C@@H](C)O)NC(=O)[C@H](CCN)NC(=O)[C@H](CCN)NC(=O)[C@H](CC(C)C)NC(=O)[C@@H](Cc2ccccc2)NC(=O)[C@H](CCN)NC1=O)[C@@H](C)O` [PMB, polymyxin B sulfate] (X1-[Dab]T[Dab][Dab][Dab][dF]L[Dab][Dab]T; lactam 4-C), the “drug concentrations in ELF compared with those in plasma” value is listed as “significantly lower”.
